Data reported in PubChem BioAssay AID330 (DTP/NCI, 2004).
“And” between values parts separate entries of the source, which are not always exact repeats. Identical values can stand only once. Toxic doses and inconclusive results are not listed.

System: P388 leukemia ip, CD2F1 mice, survival T/C
Experiment: NCI In Vivo Anticancer Drug Screen. Data for tumor model P388 Leukemia (intraperitoneal) in CD2F1 (CDF1) mice
Conditions: endpoint: median survival time, higher = longer survival
Outline: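 Mice carrying the transplanted tumor received test compound or vehicle. Survival was recorded in each group, and the value is the treated-group measurement divided by that of the vehicle-treated control group.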

[1] = dose: 50.0 mg/kg/injection, schedule: Q01DX009 (ip), vehicle: Klucel (hydroxypropylcellulose) (HPC)
[2] = dose: 100.0 mg/kg/injection, schedule: Q01DX009 (ip), vehicle: Klucel (hydroxypropylcellulose) (HPC)
[3] = dose: 200.0 mg/kg/injection, schedule: Q01DX009 (ip), vehicle: Klucel (hydroxypropylcellulose) (HPC)
[4] = dose: 25.0 mg/kg/injection, schedule: Q01DX009 (ip), vehicle: saline
[5] = dose: 50.0 mg/kg/injection, schedule: Q01DX009 (ip), vehicle: saline
[6] = dose: 60.0 mg/kg/injection, schedule: Q01DX005 (ip), vehicle: saline with Tween-80
[7] = dose: 120.0 mg/kg/injection, schedule: Q01DX005 (ip), vehicle: saline with Tween-80
[8] = dose: 50.0 mg/kg/injection, schedule: Q01DX009 (ip), vehicle: saline with Tween-80

Which T/C [1] does the source give for `Cc1cc(=O)n(Nc2ccccc2)c(O)c1C#N` here?
Its T/C is 100 % of control.

And the T/C [2]?
The T/C was 94 % of control.

And the T/C [3]?
Its T/C is 100 % of control.

Which results are given for `O=C(Nc1ccc(Cl)cc1)Sc1nnc2c(n1)[nH]c1ccccc12`?
T/C (dose: 50.0 mg/kg/injection, schedule: Q01DX005 (ip), vehicle: Klucel (hydroxypropylcellulose) (HPC)): 103 % of control; T/C (dose: 100.0 mg/kg/injection, schedule: Q01DX005 (ip), vehicle: Klucel (hydroxypropylcellulose) (HPC)): 111 % of control; T/C (dose: 200.0 mg/kg/injection, schedule: Q01DX005 (ip), vehicle: Klucel (hydroxypropylcellulose) (HPC)): 103 % of control

With `CCC(=O)Oc1ccc(/C=N/NC(N)=S)nc1` as the compound, how does the T/C (dose: 12.5 mg/kg/injection, schedule: Q01DX009 (ip), vehicle: saline) read?
Its T/C is 166 % of control.

And the T/C [4]?
The T/C was 157 % of control.

What about the T/C [5] of the same compound?
The T/C was 158 % of control and 164 % of control.

Which T/C [6] does the source give for `CC(C)CC(CO)Cc1nc2ccccc2[nH]1` (stereo not drawn) here?
The T/C was 114 % of control.

What about the T/C [7] of the same compound?
Its T/C is 105 % of control.

For `O=C(O)c1c2c(nc3ccccc13)CCCC2`, which T/C (dose: 50.0 mg/kg/injection, schedule: Q01DX005 (ip), vehicle: Klucel + Tween-80) is on record?
Its T/C is 94 % of control.

And the T/C (dose: 100.0 mg/kg/injection, schedule: Q01DX005 (ip), vehicle: Klucel + Tween-80)?
The T/C was 107 % of control.

With `O=C(O)CCC(=O)NCC1CCCC(CNC(=O)CCC(=O)O)C1` (stereo not drawn) as the compound, how does the T/C [1] read?
The T/C was 96 % of control.

And the T/C [2]?
Its T/C is 110 % of control.

What about the T/C [3] of the same compound?
The T/C was 101 % of control.

Which T/C (dose: 100.0 mg/kg/injection, schedule: Q04DX002 (ip), vehicle: saline with Tween-80) does the source give for `Cc1cc(O)c(CO)cc1C` here?
The T/C was 104 % of control.

What about the T/C (dose: 200.0 mg/kg/injection, schedule: Q04DX002 (ip), vehicle: saline with Tween-80) of the same compound?
Its T/C is 110 % of control.

What about the T/C (dose: 400.0 mg/kg/injection, schedule: Q04DX002 (ip), vehicle: saline with Tween-80) of the same compound?
Its T/C is 107 % of control.

How did the T/C (dose: 12.5 mg/kg/injection, schedule: Q01DX009 (ip), vehicle: saline with Tween-80) turn out when `CC(C)COC1CC(C)(C)c2c(-c3ccccc3)nn(-c3ccccc3)c2O1` (stereo not drawn) was run?
Its T/C is 93 % of control.

What about the T/C (dose: 25.0 mg/kg/injection, schedule: Q01DX009 (ip), vehicle: saline with Tween-80) of the same compound?
Its T/C is 93 % of control.

What about the T/C [8] of the same compound?
The T/C was 88 % of control and 93 % of control.

`O=C(OC(c1ccccc1)c1ccccc1)c1ccc([N+](=O)[O-])cc1` was tested. Which T/C [8] did it give?
Its T/C is 101 % of control.

What about the T/C (dose: 100.0 mg/kg/injection, schedule: Q01DX009 (ip), vehicle: saline with Tween-80) of the same compound?
Its T/C is 106 % of control.

And the T/C (dose: 200.0 mg/kg/injection, schedule: Q01DX009 (ip), vehicle: saline with Tween-80)?
The T/C was 108 % of control.

With `CC1=NC2=NC(CCCC(=O)N3CCCCC3)=NC3=CC=CC(=N1)N32` as the compound, how does the T/C [4] read?
Its T/C is 104 % of control.

And the T/C [5]?
Its T/C is 101 % of control.

And the T/C (dose: 100.0 mg/kg/injection, schedule: Q01DX009 (ip), vehicle: saline)?
Its T/C is 103 % of control.

With `Nc1ncnc2c1ccn2CC(O)COP(=O)(O)O` (stereo not drawn) as the compound, how does the T/C (dose: 50.0 mg/kg/injection, schedule: Q01DX005 (ip), vehicle: distilled water + alcohol) read?
The T/C was 104 % of control.

What about the T/C (dose: 100.0 mg/kg/injection, schedule: Q01DX005 (ip), vehicle: distilled water + alcohol) of the same compound?
The T/C was 100 % of control.

And the T/C (dose: 200.0 mg/kg/injection, schedule: Q01DX005 (ip), vehicle: distilled water + alcohol)?
The T/C was 100 % of control.

`CN(C)c1ccc2nc(/C=N/NC(N)=S)ccc2c1` was tested. Which T/C (dose: 100.0 mg/kg/injection, schedule: Q04DX002 (ip), vehicle: distilled water + Tween-80 + alcohol) did it give?
The T/C was 101 % of control.

What about the T/C (dose: 200.0 mg/kg/injection, schedule: Q04DX002 (ip), vehicle: distilled water + Tween-80 + alcohol) of the same compound?
The T/C was 92 % of control.

Which T/C [6] does the source give for `O=c1[nH]cnc2sc3c(c12)CCC3` here?
Its T/C is 100 % of control.

What about the T/C [7] of the same compound?
Its T/C is 88 % of control.

And the T/C (dose: 240.0 mg/kg/injection, schedule: Q01DX005 (ip), vehicle: saline with Tween-80)?
Its T/C is 94 % of control.

Which results are given for `Oc1ccc(O)c2c1C1(Cl)C(Cl)=C(Cl)C2(Cl)C1(Cl)Cl`?
T/C (dose: 100.0 mg/kg/injection, schedule: Q04DX003 (ip), vehicle: other): 100 % of control; T/C (dose: 200.0 mg/kg/injection, schedule: Q04DX003 (ip), vehicle: other): 104 % of control; T/C (dose: 400.0 mg/kg/injection, schedule: Q04DX003 (ip), vehicle: other): 113 % of control

Which T/C (dose: 12.5 mg/kg/injection, schedule: Q01DX005 (ip), vehicle: saline) does the source give for `CN=C(NC)NCCSCc1ccc2ccccc2n1` here?
Its T/C is 115 % of control.

And the T/C (dose: 25.0 mg/kg/injection, schedule: Q01DX005 (ip), vehicle: saline)?
The T/C was 118 % of control.

What about the T/C (dose: 50.0 mg/kg/injection, schedule: Q01DX005 (ip), vehicle: saline) of the same compound?
Its T/C is 102 % of control and 112 % of control.

Which results are given for `NC(=O)c1[nH]ncc1C1OCCC1O` (stereo not drawn)?
T/C (dose: 100.0 mg/kg/injection, schedule: Q01DX001 (ip), vehicle: saline with Tween-80): 100 % of control; T/C (dose: 200.0 mg/kg/injection, schedule: Q01DX001 (ip), vehicle: saline with Tween-80): 100 % of control; T/C (dose: 400.0 mg/kg/injection, schedule: Q01DX001 (ip), vehicle: saline with Tween-80): 100 % of control

With `C/C(N=NC(=S)N1CC(C)OC(C)C1)=C1\C=CC=CN1O` (stereo not drawn) as the compound, how does the T/C (dose: 50.0 mg/kg/injection, schedule: Q01DX005 (ip), vehicle: saline with Tween-80) read?
Its T/C is 111 % of control.

What about the T/C (dose: 100.0 mg/kg/injection, schedule: Q01DX005 (ip), vehicle: saline with Tween-80) of the same compound?
Its T/C is 104 % of control.

And the T/C (dose: 200.0 mg/kg/injection, schedule: Q01DX005 (ip), vehicle: saline with Tween-80)?
Its T/C is 106 % of control.
